Experimental data: paper PMC4357015, “Structure, Function and Inhibition of the Phosphoethanolamine Methyltransferases of the Human Malaria Parasites Plasmodium vivax and Plasmodium knowlesi” (Scientific Reports, 2015)

Biological target: T1, PkPMT (Plasmodium knowlesi, UniProt A0A384KJX3)
T1 sequence (A0A384KJX3 1-264): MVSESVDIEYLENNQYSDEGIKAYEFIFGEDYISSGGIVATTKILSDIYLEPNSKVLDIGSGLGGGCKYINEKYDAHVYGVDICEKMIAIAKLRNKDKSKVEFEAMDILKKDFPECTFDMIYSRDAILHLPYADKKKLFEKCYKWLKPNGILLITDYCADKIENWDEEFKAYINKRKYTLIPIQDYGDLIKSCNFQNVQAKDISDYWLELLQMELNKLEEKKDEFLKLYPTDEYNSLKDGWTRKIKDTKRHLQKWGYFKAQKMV
Experiment: radiometric PMT transmethylation assay, inhibition of PkPMT
Format: biochemical
Conditions: P-Etn 2 mM, SAM 1.5 mM; inhibitor 0, 100, 500, 1000 μM; read-out: IC50, inhibition of PkPMT activity
Method: Figure 3 Amodiaquine (AQ) and NSC158011 inhibit the activity of PvPMT and PkPMT. Enzyme inhibition assays with different concentrations of Amodiaquine (AQ), NSC158011 and Chloroquine (CQ) were carried out at constant P-Etn (2 mM) and SAM (1.5 mM) concentrations. The activity in the absence of any drug was taken as 100% and % enzyme activity was calculated in the presence of different drug concentrations (100, 500, 1000 μM). To determine the concentration that results in 50% inhibition of enzyme activity (IC50), the data were fitted to a non-linear regression analysis in the following equation Y = 100/(1 + ([X]/IC50)), where Y is % enzyme activity and X is drug concentration using Graph pad software.
For enzyme kinetics studies recombinant histidine-tagged proteins were expressed using 1 mM IPTG for 4 h, purified using Ni-affinity purification and dialyzed. As expected, purified proteins migrated in SDS-PAGE gels at approximately 31 kDa. The purified proteins were stored in HEPES-KOH buffer (pH 7.4) at 4°C and were assayed within a month of purification. During this time, the integrity of the protein was assessed by SDS-PAGE. The kinetic properties of enzymes were assessed using radiometric assay wherein incorporation of radioactive labeled methyl donor (100nCi [methyl-^14C] SAM, Perkin elmer NEC363010UC) or (200nCi [methyl-^3H] SAM, Perkin Elmer NET155H250UC) was measured. […]

## CCN(CC)Cc1cc(Nc2ccnc3cc(Cl)ccc23)ccc1O [AQ, amodiaquine]
  IC50: 398 µM
